Test results as given in paper PMC12767106, “In Situ Assembly of Transformable Monopeptide on Activated Neutrophils Attenuates NETs‐Induced Hepatocellular Carcinoma Metastasis by Disrupting NE Nuclear Translocation” (Advanced Science, 2025).

Columns and labels:
C166 endothelial cells = assay: Matrigel tube formation assay; type: cell-based, mouse; conditions: 6 h, versus Control and NFTP-NPs groups
Protocol: Matrigel tube formation assay
Murine C166 endothelial cells (3×10^4cells/well) were placed on 96-well plates coated with Matrigel (356231, Corning, New York, USA) and incubated with various treatments. After incubation for six h, capillary-like structures were observed and counted under a microscope (Axiovert 200, Zeiss, Germany). All the experiments […]
In vitro permeability assays and trans-endothelial invasion assays
For in vitro permeability assays, C166 cells were treated with Resting neutrophils, Control, NFTP-NPs, FTP-NPs, and NEi groups for 48 h to form an endothelial monolayer, and then Evans Blue (PHYGENE, China) was added to the upper layer of the transwell filters (0.4 μm, Corning). […]
All the experiments were performed thrice. […]

[1] = test system: Hepa1-6/luc HCC xenograft; assay: Subcutaneous Hepa1-6/luc tumor model, tumor growth; type: in vivo, mouse; conditions: C57BL/6J mice, 300 µM in 200 µL i.v. five times every two days; aPD-1 200 µg i.p. every 4 days, 3 doses; n = 5
Protocol: (§1) Submitted to Advanced Science
(§2) Total RNA was extracted and purified using a miRNeasy Mini Kit (FOREGENE, China). Quantitative real-time polymerase chain reaction (qRT-PCR) was performed in triplicate in the ABI 7500 fast real-time PCR System (Applied Biosystems, USA). The mRNAs were normalized with 18s. The following primers were used for PCR detection: E-cadherin, N-cadherin, Vimentin, and α-catenin.
(§3) Western blot analysis was performed to evaluate the levels of relative proteins in Hepa1-6/luc cells and Neutrophils.38 To evaluate NETs release, the neutrophils were exposed to PMA, PMA+NFTP -NPs, and PMA+FTP-NPs for 12 h. Following treatment, the cells underwent three PBS washes for WB to measure the expression of CitH3 proteins (Cat. no. ab5103, Abcam, Cambridge, England , UK). Furthermore, to evaluate EMT of Hepa1-6/luc cells, the cells underwent three PBS washes for WB to measure the expression of E - cadherin (Abmart, China), N-cadherin (Abmart, China), Vimentin (Abmart, China) , and β-catenin (Abmart, […]
(§4) In vivo subcutaneously implanted tumor models
The C57BL/6J mice with subcutaneous Hepa1-6/luc xenografts (grew up to roughly 100 mm 3) were separated into four groups according to the different treatments to perform the in vivo tumor therapy. […] Throughout the experiment, the tumor volumes and body weight were measured once every four days. […]

activated neutrophils = assay: Recognition of activated versus resting neutrophils, flow cytometry of PpIX; type: cell-based, mouse; conditions: 50 µM, 1 h, neutrophils activated with PMA 100 nM, n = 3
[2] = mouse, in vivo
[3] = test system: subcutaneous Hepa1-6/luc tumors; assay: Immune profiling of tumors by flow cytometry, plasma cytokines by ELISA; type: in vivo, mouse; conditions: tumor-bearing mice
Protocol: as §1, §2, §3, §4
The C57BL/6J mice with subcutaneous Hepa1-6/luc xenografts (grew up to roughly 100 mm 3) were separated into four groups according to the different treatments to perform the in vivo tumor therapy. PBS, NFTP-NPs, FTP-NPs, and NEi (300 µM in PBS: DMSO = 95:5, 200 µL) were administered intravenously (i.v.) five times every two days to mice. aPD-1 (BE0146, Bio X Cell, USA) was injected intraperitoneally into each mouse at 200μg once every 4 days for 3 doses. Throughout the experiment, the tumor volumes and body weight were measured once every four days. The formula tumor volume=length*1/2 width2 was used to get the tumor volume; at the same time, IVIS (AniView SE, Guangzhou Biolight Biotechnology Co., Ltd) was used to calculate bioluminescence signals in vivo. After therapy (day 20), major organs and blood samples were taken for histological and biochemical investigation as part of a safety assessment. […]
TNF-α, were measured using commercially available ELISA kits to assess the immune activation induced by […]

PpIX-GFFVLK-EAIPMSIPPEVK [FTP-NPs]
number of tubular structures formed (C166 endothelial cells): significantly lower | tumor growth / increase in tumor volume [1]: significant efficacy in suppressing tumor growth | PpIX fluorescence of activated neutrophils relative to resting neutrophils (activated neutrophils): about 2.8 times | toxicity in mice (liver function, platelets, creatinine, blood cell count) [2]: nontoxic | plasma IL-6 level [3]: significantly higher | plasma IL-10 level [3]: decreased | plasma TNF-α level [3]: significantly higher
